Assay results published in US20150335657A1, “Methods for Modulating Sirtuin Enzymes” (The Trustees of Princeton University, priority 2014, published 2015).

How the values were obtained:
[1] = system: human cytomegalovirus (HCMV) AD169 strain; test: Antiviral activity against HCMV in MRC5 fibroblasts (virus yield, fluorescent focus assay); format: cell-based; conditions: Human betaherpesvirus 5, HCMV AD169, 1 infectious unit/cell, treated 2 h after infection, virus in medium at 96 h
SIRT3 = target: T1, SIRT3 (Homo sapiens, UniProt Q9NTG7); test: Sirtuin deacetylase enzyme activity assay (Cayman Chemical), compound screen; format: biochemical; conditions: compound at 50 μM; Z-score of change in fluorescent signal; + increase, − decrease
T1 construct: purchased Cayman Chemical
T1 sequence (Q9NTG7 1-399): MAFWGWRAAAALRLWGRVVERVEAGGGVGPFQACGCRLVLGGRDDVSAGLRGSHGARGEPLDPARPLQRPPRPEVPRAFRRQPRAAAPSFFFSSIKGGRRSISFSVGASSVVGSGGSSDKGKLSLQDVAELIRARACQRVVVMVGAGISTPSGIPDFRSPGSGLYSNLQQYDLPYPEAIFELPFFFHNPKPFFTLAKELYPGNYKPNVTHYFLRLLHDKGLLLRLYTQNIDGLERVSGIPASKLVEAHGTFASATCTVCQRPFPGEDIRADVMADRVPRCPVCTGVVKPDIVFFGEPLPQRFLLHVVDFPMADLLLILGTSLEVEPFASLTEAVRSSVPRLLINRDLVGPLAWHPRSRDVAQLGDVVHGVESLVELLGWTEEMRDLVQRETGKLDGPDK
Source text: (§1) Sirtuins have been identified as innate viral restriction factors and it has been previously shown that drugs that modulate the activity of these enzymes block the production of multiple viruses in culture (see, e.g., WO 2012/106509). Sirtuins are NAD-dependent enzymes that regulate the activity of target proteins by post-translational modifications and thereby control key cellular events (see, e.g., Haigis and Sinclair (2010) Ann Rev Pathol Mech Dis 5:253-95). SIRT1, SIRT2, SIRT3 and SIRT6 have shown a detectable deacetylase activity in well-established biochemical assays that utilize recombinant SIRT1, SIRT2, SIRT3, and SIRT6 enzymes and fluorophore-conjugated acetyl-peptides. As described in the Examples below, the deacetylase activity of these sirtuins were used as a surrogate to identify compounds having broad-range antiviral activity.
(§2) A publically disclosed, small molecule library consisting of approximately 13,000 compounds was screened using a commercially available (Cayman Chemical) enzyme activity assay. Deacetylase activity of sirtuins SIRT1, SIRT2, SIRT3, and SIRT6 was used as a surrogate to identify compounds with the potential for having broad-range antiviral activity. The compounds were tested at a single concentration (50 μM) in microtiter plates and their activity against the four sirtuins was recorded as a change in fluorescent signal intensity. […] Activation of sirtuin activity generated positive Z-scores and inhibition of sirtuin activity produced negative Z-scores.

SIRT2 = target: T2, SIRT2 (Homo sapiens, UniProt Q8IXJ6); test: as above; format: biochemical; conditions: compound at 50 μM; Z-score of change in fluorescent signal; + increase, − decrease
T2 construct: purchased Cayman Chemical
T2 sequence (Q8IXJ6 1-389): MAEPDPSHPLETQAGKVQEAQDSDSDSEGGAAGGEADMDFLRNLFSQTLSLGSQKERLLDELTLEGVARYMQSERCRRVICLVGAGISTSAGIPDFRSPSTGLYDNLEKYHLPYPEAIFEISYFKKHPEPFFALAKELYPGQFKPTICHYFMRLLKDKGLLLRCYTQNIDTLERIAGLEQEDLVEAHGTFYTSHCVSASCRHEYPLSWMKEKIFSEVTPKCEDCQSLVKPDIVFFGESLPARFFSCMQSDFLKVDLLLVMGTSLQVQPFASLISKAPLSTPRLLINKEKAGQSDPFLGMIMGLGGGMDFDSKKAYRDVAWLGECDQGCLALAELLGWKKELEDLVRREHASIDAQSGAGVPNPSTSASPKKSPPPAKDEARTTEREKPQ
Source text: as §1, §2

SIRT1 = target: T3, SIRT1 (Homo sapiens, UniProt Q96EB6); test: as above; format: biochemical; conditions: compound at 50 μM; Z-score of change in fluorescent signal; + increase, − decrease
T3 construct: purchased Cayman Chemical
T3 sequence (Q96EB6 1-747): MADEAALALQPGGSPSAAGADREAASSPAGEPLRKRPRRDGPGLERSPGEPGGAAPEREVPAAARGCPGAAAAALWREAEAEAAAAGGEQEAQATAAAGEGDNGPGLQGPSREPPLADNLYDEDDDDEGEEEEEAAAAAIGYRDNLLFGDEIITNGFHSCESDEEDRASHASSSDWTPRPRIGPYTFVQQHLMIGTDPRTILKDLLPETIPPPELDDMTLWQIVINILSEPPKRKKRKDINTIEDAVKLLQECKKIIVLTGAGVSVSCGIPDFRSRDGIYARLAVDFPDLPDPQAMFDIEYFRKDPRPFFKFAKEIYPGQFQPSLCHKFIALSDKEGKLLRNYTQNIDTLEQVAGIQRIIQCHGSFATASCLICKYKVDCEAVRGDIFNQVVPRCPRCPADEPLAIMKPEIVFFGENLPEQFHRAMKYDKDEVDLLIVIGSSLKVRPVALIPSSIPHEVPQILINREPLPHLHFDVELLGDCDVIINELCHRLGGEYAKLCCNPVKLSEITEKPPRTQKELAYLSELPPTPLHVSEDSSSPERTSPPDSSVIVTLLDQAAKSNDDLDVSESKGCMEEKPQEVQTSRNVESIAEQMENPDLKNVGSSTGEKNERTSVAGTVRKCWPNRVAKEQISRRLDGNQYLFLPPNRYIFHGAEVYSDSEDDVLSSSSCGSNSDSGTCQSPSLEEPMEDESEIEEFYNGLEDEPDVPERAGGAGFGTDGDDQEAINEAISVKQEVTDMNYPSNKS
Source text: as §1, §2

SIRT6 = target: T4, SIRT6 (Homo sapiens, UniProt Q8N6T7); test: as above; format: biochemical; conditions: compound at 50 μM; Z-score of change in fluorescent signal; + increase, − decrease
T4 construct: purchased Cayman Chemical
Source text: as §1, §2

[2] = Tetrazolium-based cell viability assay (cytotoxicity); conditions: human

T4 sequence (Q8N6T7 whole entry): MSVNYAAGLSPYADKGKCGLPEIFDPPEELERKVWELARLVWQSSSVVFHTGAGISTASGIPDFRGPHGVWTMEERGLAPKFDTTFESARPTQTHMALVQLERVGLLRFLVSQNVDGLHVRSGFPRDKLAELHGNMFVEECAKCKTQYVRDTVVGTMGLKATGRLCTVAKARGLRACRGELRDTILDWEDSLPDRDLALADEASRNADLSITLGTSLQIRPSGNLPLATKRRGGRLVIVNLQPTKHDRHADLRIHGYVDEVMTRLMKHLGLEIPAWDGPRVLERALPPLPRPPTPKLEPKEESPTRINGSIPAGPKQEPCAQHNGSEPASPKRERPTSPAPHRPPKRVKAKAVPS

SMILES	IC50 [1] [µM]	IC90 [1] [µM]	SIRT3 (change in sirtuin deacetylase activity, Z-score class) (SIRT3)	SIRT2 (change in sirtuin deacetylase activity, Z-score class) (SIRT2)	SIRT1 (change in sirtuin deacetylase activity, Z-score class) (SIRT1)	SIRT6 (change in sirtuin deacetylase activity, Z-score class) (SIRT6)	CC50 at 96 h [2] [µM]
COc1ccccc1C(C)C(F)CNc1cnc2ccccc2c1 (stereo not shown)	1.19	2.24	na (−2 ≦ Z-score < 2 = no activity (na))	++ (2 ≦ Z-score < 3 = ++)	+++ (Z-score ≧ 3 = +++)	+++ (Z-score ≧ 3 = +++)	> 50
COc1cccc(CN2C(=O)c3cccnc3N(C)C2C(F)C(C)c2cnc3ccccc3c2)c1 (stereo not shown)	1.54	15.5	+++ (Z-score ≧ 3 = +++)	+++ (Z-score ≧ 3 = +++)	+++ (Z-score ≧ 3 = +++)	+++ (Z-score ≧ 3 = +++)	25 to 50
CC(c1ccncc1)c1cnc(N2CCc3ccccc3C2)s1 (stereo not shown)	28.3	41.9	na (−2 ≦ Z-score < 2 = no activity (na))	−−− (Z-score ≦ −3 = −−−)	na (−2 ≦ Z-score < 2 = no activity (na))	na (−2 ≦ Z-score < 2 = no activity (na))	> 50
Cc1ccc(C(C)C(CN2CCN(C)CC2)Oc2cnccn2)cn1 (stereo not shown)	30.2	56	na (−2 ≦ Z-score < 2 = no activity (na))	na (−2 ≦ Z-score < 2 = no activity (na))	na (−2 ≦ Z-score < 2 = no activity (na))	+++ (Z-score ≧ 3 = +++)	> 50
